What was measured:
Assay in all cases: relative viability (nuclei count vs DMSO), 5 days (fraction); higher = more cells survive
Pazopanib + Decitabine = compound: Cc1ccc(Nc2nccc(N(C)c3ccc4c(C)n(C)nc4c3)n2)cc1S(N)(=O)=O [Pazopanib] + Nc1ncn([C@H]2C[C@H](O)[C@@H](CO)O2)c(=O)n1 [Decitabine] (partner 2 µM)
In short: (§1)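 Nuclei were stained with Hoechst during a one-step fixation (final 0.05% Triton X-100, 1% formaldehyde, 1 ug/ml Hoechst) carried out 5 days after dosing, then counted on 4× images. The cells, lung cancer lines in 1536-well plates, had been dosed by pin tool the day after seeding with one drug alone or a fixed anchor-drug dose plus five library-drug doses (not always all listed) in √10 steps. Relative viability is the nuclei count in treated wells divided by that in vehicle wells, and each value is the median of duplicate plates.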

Pazopanib + OSI-027 = compound: Cc1ccc(Nc2nccc(N(C)c3ccc4c(C)n(C)nc4c3)n2)cc1S(N)(=O)=O [Pazopanib] + COc1cccc2cc(-c3nc([C@H]4CC[C@H](C(=O)O)CC4)n4ncnc(N)c34)[nH]c12 [OSI-027] (partner 0.5 µM)
In short: as §1

Pazopanib + Olaparib = compound: Cc1ccc(Nc2nccc(N(C)c3ccc4c(C)n(C)nc4c3)n2)cc1S(N)(=O)=O [Pazopanib] + O=C(c1cc(Cc2n[nH]c(=O)c3ccccc23)ccc1F)N1CCN(C(=O)C2CC2)CC1 [Olaparib] (partner 8 µM)
In short: as §1

Ponatinib + Pemetrexed = compound: Cc1ccc(C(=O)Nc2ccc(CN3CCN(C)CC3)c(C(F)(F)F)c2)cc1C#Cc1cnc2cccnn12 [Ponatinib] + Nc1nc2[nH]cc(CCc3ccc(C(=O)N[C@@H](CCC(=O)O)C(=O)O)cc3)c2c(=O)[nH]1 [Pemetrexed] (partner 0.2 µM)
In short: as §1

Cell Line | relative viability (Pazopanib + Decitabine; first compound 0.01 µM) | relative viability (Pazopanib + Decitabine; first compound 0.03162 µM) | relative viability (Pazopanib + Decitabine; first compound 0.1 µM) | relative viability (Pazopanib + Decitabine; first compound 0.3162 µM) | relative viability (Pazopanib + Decitabine; first compound 1 µM) | relative viability (Pazopanib + OSI-027; first compound 0.01 µM) | relative viability (Pazopanib + OSI-027; first compound 0.03162 µM) | relative viability (Pazopanib + OSI-027; first compound 0.1 µM) | relative viability (Pazopanib + OSI-027; first compound 0.3162 µM) | relative viability (Pazopanib + OSI-027; first compound 1 µM) | relative viability (Pazopanib + Olaparib; first compound 0.01 µM) | relative viability (Pazopanib + Olaparib; first compound 0.03162 µM) | relative viability (Pazopanib + Olaparib; first compound 0.1 µM) | relative viability (Pazopanib + Olaparib; first compound 0.3162 µM) | relative viability (Pazopanib + Olaparib; first compound 1 µM) | relative viability (Ponatinib + Pemetrexed; first compound 0.002 µM) | relative viability (Ponatinib + Pemetrexed; first compound 0.006325 µM) | relative viability (Ponatinib + Pemetrexed; first compound 0.06325 µM) | relative viability (Ponatinib + Pemetrexed; first compound 0.2 µM)
NCI-H1437 | 0.541 | 0.611 | 0.626 | 0.602 | 0.567 | 0.901 | 0.879 | 0.998 | 0.907 | 1.05 | 0.644 | 0.645 | 0.649 | 0.653 | 0.551 | 0.312 | 0.294 | 0.32 | 0.27
COR-L23 | 0.457 | 0.43 | 0.442 | 0.459 | 0.49 | 0.91 | 0.838 | 0.872 | 0.832 | 0.913 | 0.35 | 0.332 | 0.366 | 0.299 | 0.34 | 0.19 | 0.193 | 0.189 | 0.19
ABC-1 | 1.01 | 1.12 | 1 | 1.31 | 0.807 | 0.367 | 0.572 | – | 0.668 | 0.579 | 1.01 | 1.15 | 0.959 | 0.946 | 0.782 | – | – | – | –
NCI-H522 | 0.658 | 0.666 | 0.817 | 0.73 | 0.673 | 0.705 | 0.662 | 0.705 | 0.636 | 0.775 | 0.587 | 0.617 | 0.678 | 0.707 | 0.642 | 0.753 | 1.15 | 1.15 | 1.13
PC-14 | 0.186 | 0.221 | 0.245 | 0.226 | 0.305 | 0.871 | 0.937 | 1.06 | 0.849 | 1.01 | 0.335 | 0.329 | 0.371 | 0.235 | 0.319 | 0.129 | 0.137 | 0.141 | 0.122
SW 900 | 0.516 | 0.453 | – | 0.462 | 0.505 | 0.478 | 0.535 | 0.515 | 0.588 | 0.565 | 0.942 | 1.07 | – | 0.915 | 0.945 | 0.458 | 0.495 | 0.457 | 0.464
A549 | – | 0.276 | 0.281 | 0.273 | 0.332 | – | – | – | – | – | 0.248 | 0.301 | 0.283 | 0.297 | 0.36 | – | – | – | –
A-427 | 0.554 | 0.538 | 0.554 | 0.533 | 0.613 | 0.512 | 0.481 | 0.462 | 0.516 | 0.448 | 0.729 | 0.8 | 0.758 | 0.812 | 0.791 | 0.928 | 0.986 | 0.981 | 0.908
NCI-H1792 | – | 0.549 | 0.456 | 0.621 | 0.524 | – | 0.714 | 0.702 | 0.746 | 0.673 | – | 0.384 | 0.435 | 0.483 | 0.384 | 0.698 | 0.849 | 1.14 | 0.746
LCLC-97TM1 | – | 0.229 | 0.247 | 0.223 | 0.237 | 0.5 | 0.601 | 0.523 | 0.528 | 0.513 | – | 0.313 | 0.534 | 0.293 | 0.252 | 0.166 | 0.142 | 0.167 | 0.161
NCI-H1703 | – | – | – | – | – | – | – | – | – | – | 0.465 | – | 0.223 | 0.244 | 0.194 | – | – | – | –
LCLC-103H | 0.653 | 0.708 | 0.735 | 0.682 | 0.679 | 0.495 | 0.454 | 0.547 | 0.482 | 0.485 | 0.723 | 0.699 | 0.769 | 0.79 | 0.799 | 0.446 | 0.5 | 0.483 | 0.416
RERF-LC-KJ | 0.66 | 0.681 | 0.739 | 0.631 | 0.699 | 0.677 | 0.605 | 0.605 | 0.515 | 0.617 | 0.805 | 0.938 | 0.947 | 0.785 | 0.583 | 0.468 | 0.492 | 0.486 | 0.453
BEN | 0.579 | 0.791 | 0.726 | 0.831 | 0.782 | – | 0.348 | 0.314 | 0.287 | 0.314 | 1.06 | 1.29 | 1.11 | 0.943 | 0.931 | 0.678 | 0.718 | 0.749 | 0.767
NCI-H1666 | 0.703 | 0.716 | 0.636 | 0.76 | 0.765 | 0.86 | 0.953 | 0.882 | 0.866 | 0.948 | 0.819 | 0.874 | 0.74 | 0.649 | 0.769 | 0.847 | 0.829 | 0.928 | 0.837
LC-2-ad | 0.88 | 0.644 | 0.915 | 0.85 | 0.776 | 0.865 | 1 | 0.84 | 0.808 | 0.99 | 0.796 | 0.684 | 0.705 | 0.778 | 0.682 | 0.274 | 0.272 | 0.296 | 0.263
Calu-6 | – | – | – | – | – | – | – | – | – | – | 0.601 | 0.559 | 0.589 | 0.579 | 0.5 | – | – | – | –
EBC-1 | – | – | – | – | – | – | – | – | – | – | 0.696 | 0.754 | 0.696 | 0.751 | 0.752 | – | – | – | –
NCI-H1299 | – | – | – | – | – | – | – | – | – | – | 1 | 0.961 | 0.934 | 0.993 | 0.865 | – | – | – | –
NCI-H2228 | – | – | – | – | – | 0.518 | 0.495 | 0.532 | 0.507 | 0.655 | 0.829 | 0.492 | 0.611 | 0.574 | 0.48 | 0.382 | 0.339 | 0.358 | 0.306
IA-LM | – | – | – | – | – | – | – | – | – | – | 0.719 | 0.909 | 0.925 | 0.774 | 0.658 | – | – | – | –
NCI-H727 | 0.724 | – | 0.879 | 0.885 | 1.02 | 0.462 | 0.561 | 0.545 | 0.505 | 0.574 | 0.672 | – | 0.595 | 0.612 | 0.629 | – | – | – | –
CAL-12T | – | – | – | – | – | 0.473 | 0.943 | 0.609 | 0.591 | 0.684 | 0.854 | 0.783 | 0.694 | 0.74 | 0.707 | 1.13 | 1.14 | 1.31 | 1.21
